{"source": "patent US20260248774A1", "about": "“INHIBITORS OF BACTERIAL TYPE III SECRETION SYSTEM” (MICROBIOTIX, INC., priority 2022, published 2026)", "key": {"[1]": {"system": "P. aeruginosa T3SS-mediated secretion of ExoS-β-lactamase fusion protein", "assay": "Effector-β-lactamase (ExoS-βLA) reporter assay of T3SS-mediated secretion", "type": "cell-based, Pseudomonas aeruginosa", "conditions": "read-out: ExoS-BLA IC50; Table 1", "description": "Effector-β-Lactamase (βLA) Reporter Assay of T3SS-Mediated Secretion with an Absorbency Signal.\nA gene encoding the exoS promoter/regulatory region and an ExoS-β-lactamase (βLA) fusion protein (comprised of the full length P. aeruginosa T3SS effector ExoS fused in reading frame to the TEM-1 β-lactamase gene lacking secretion signal codons) was constructed by splicing by overlap extension PCR (SOE-PCR) (Choi and Schweizer, 2005, BMC Microbiol., 5:30), sequence confirmed, cloned into miniCTX and introduced into P. aeruginosa strain PAO1 to generate strains MDM1746 and MDM1838 as previously described for strain MDM1710 (Bowlin et al., 2014, Antimicrob Agents Chemother., 58:2211-2220). Secretion of ExoS-β-lactamase fusion protein following EGTA addition to induce the T3SS operons was detected by measuring the hydrolysis of the chromogenic β-lactamase substrate nitrocefin in clear 96-well microplates in a modification of a previously described assay (Lee, et al., 2007, Infect. Immun., 75:1089-98). Cells of strain MDM1746, or negative control MDM1838 (which fails to carry out T3SS secretion due to ΔpscF), were sub-cultured in the morning from overnight growths in LBG into 0.1 ml of LBGE with or without test compounds and grown for 150 min. Nitrocefin (100 μg/mL final) was added, and A490 measurements taken every minute for 15 min in a Victor^3V 1420 Multilabel HTS Counter (PerkinElmer). Slopes were calculated as a relative measure of the quantity of the effector-βLA fusion protein secreted and were absolutely dependent on induction with EGTA, and the presence of a functional pscF gene in the P. aeruginosa cells. Typical signal: background ratios were 6-10."}, "[2]": {"system": "T3SS-mediated translocation of ExoU by P. aeruginosa strain MDM1561 (PA99U) into CHO cells", "assay": "P. aeruginosa ExoU-dependent CHO cell killing assay for T3SS-mediated translocation", "type": "cell-based, Pseudomonas aeruginosa", "conditions": "read-out: Translocation EC50; Table 1", "description": "P. aeruginosa ExoU-Dependent CHO Cell Killing."}, "[3]": {"molecular_target": "panel of human cytochrome P450s, receptors, and ion channels (Rattus norvegicus, UniProt P43140)", "sequence (P43140 whole entry)": "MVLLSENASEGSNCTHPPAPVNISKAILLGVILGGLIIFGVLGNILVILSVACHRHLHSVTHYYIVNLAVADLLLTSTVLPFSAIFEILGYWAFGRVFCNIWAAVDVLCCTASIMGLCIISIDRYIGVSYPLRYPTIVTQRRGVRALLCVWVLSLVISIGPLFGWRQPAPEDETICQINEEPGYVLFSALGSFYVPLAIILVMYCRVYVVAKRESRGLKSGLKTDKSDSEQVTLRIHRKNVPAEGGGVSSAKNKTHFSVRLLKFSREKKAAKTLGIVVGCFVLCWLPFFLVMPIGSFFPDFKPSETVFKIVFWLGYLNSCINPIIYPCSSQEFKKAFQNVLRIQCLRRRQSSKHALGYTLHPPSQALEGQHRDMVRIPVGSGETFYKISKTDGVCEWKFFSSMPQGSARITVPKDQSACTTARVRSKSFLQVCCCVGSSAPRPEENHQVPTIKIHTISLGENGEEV", "conditions": "assayed at 10 μM"}, "[4]": {"molecular_target": "panel of human cytochrome P450s, receptors, and ion channels (Homo sapiens, UniProt P30542)", "sequence (P30542 whole entry)": "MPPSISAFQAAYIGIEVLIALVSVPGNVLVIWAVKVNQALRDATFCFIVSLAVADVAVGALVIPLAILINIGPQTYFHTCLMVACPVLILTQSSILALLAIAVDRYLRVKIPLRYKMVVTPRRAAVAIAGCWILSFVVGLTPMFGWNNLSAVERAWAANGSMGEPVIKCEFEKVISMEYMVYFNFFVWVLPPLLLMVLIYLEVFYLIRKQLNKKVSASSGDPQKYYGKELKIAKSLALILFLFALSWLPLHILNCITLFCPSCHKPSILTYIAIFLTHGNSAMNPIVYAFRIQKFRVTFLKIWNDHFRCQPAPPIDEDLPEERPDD", "conditions": "assayed at 10 μM"}, "[5]": {"molecular_target": "panel of human cytochrome P450s, receptors, and ion channels (Homo sapiens, UniProt P08588)", "sequence (P08588 whole entry)": "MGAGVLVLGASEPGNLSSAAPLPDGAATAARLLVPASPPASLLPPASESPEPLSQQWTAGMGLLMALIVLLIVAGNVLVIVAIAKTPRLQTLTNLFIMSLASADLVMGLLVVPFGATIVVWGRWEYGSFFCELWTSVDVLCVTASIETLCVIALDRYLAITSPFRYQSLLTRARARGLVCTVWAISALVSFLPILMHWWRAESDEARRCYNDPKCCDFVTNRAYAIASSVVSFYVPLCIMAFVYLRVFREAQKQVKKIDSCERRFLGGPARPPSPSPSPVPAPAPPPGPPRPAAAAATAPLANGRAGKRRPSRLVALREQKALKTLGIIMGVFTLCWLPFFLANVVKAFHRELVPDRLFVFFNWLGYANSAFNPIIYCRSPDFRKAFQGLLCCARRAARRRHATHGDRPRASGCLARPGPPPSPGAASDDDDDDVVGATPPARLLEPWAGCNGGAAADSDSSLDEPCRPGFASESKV", "conditions": "assayed at 10 μM"}, "[6]": {"molecular_target": "panel of human cytochrome P450s, receptors, and ion channels (Homo sapiens, UniProt P41595)", "sequence (P41595 whole entry)": "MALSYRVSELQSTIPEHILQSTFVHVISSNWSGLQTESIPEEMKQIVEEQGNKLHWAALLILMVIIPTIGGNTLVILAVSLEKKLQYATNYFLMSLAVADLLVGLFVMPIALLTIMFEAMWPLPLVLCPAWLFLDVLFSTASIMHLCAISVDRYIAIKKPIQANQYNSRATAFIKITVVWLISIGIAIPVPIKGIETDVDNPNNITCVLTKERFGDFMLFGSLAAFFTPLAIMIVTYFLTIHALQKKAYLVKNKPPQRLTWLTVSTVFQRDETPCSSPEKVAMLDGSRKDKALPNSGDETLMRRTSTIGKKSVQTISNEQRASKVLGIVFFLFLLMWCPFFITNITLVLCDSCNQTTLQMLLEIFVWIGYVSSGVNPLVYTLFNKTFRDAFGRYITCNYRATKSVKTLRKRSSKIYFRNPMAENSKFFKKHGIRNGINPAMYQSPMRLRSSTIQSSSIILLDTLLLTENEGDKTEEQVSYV", "conditions": "assayed at 10 μM"}, "[7]": {"molecular_target": "panel of human cytochrome P450s, receptors, and ion channels (Homo sapiens, UniProt P35367)", "sequence (P35367 whole entry)": "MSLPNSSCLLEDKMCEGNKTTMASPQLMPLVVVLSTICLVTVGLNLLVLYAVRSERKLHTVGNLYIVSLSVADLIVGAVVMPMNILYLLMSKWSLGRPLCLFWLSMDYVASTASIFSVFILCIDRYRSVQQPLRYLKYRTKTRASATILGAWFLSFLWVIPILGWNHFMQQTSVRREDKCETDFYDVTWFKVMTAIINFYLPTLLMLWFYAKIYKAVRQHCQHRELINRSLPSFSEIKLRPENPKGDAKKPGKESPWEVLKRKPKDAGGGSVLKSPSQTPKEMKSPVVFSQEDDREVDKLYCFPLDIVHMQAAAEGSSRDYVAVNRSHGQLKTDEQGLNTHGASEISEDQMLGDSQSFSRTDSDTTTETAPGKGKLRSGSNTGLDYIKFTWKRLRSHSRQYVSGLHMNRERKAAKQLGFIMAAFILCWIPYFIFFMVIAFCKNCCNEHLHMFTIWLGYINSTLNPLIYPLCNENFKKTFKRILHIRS", "conditions": "assayed at 10 μM"}, "[8]": {"molecular_target": "panel of human cytochrome P450s, receptors, and ion channels (Homo sapiens, UniProt P08913)", "sequence (P08913 whole entry)": "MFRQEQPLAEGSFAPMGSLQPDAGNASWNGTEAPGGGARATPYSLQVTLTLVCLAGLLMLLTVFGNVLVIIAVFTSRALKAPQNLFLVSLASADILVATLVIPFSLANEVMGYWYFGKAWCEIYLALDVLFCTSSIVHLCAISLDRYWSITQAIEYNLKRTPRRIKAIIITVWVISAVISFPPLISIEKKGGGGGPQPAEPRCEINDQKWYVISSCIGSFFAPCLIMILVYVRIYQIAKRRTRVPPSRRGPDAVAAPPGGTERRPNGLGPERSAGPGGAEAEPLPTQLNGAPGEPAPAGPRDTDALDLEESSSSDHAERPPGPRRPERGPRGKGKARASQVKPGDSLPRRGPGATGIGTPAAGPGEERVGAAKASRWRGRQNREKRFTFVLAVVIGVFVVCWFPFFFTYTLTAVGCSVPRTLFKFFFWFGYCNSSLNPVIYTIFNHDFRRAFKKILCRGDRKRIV", "conditions": "assayed at 10 μM"}, "[9]": {"molecular_target": "panel of human cytochrome P450s, receptors, and ion channels (Homo sapiens, UniProt P35408)", "sequence (P35408 whole entry)": "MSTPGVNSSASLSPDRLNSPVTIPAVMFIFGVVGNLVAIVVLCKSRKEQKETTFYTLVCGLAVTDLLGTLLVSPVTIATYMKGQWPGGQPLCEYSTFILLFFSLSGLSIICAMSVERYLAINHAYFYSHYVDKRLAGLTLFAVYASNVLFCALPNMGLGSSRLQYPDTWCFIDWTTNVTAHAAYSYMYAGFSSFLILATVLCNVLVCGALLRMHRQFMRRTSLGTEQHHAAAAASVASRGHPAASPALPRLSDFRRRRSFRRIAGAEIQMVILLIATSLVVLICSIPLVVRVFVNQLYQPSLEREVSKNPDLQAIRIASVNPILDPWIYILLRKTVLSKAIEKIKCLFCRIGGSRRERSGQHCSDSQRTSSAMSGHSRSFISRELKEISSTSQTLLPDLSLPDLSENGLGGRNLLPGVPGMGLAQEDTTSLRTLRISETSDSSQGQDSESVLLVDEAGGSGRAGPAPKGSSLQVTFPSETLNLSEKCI", "conditions": "assayed at 10 μM"}, "[10]": {"molecular_target": "panel of human cytochrome P450s, receptors, and ion channels (Homo sapiens, UniProt P23975)", "sequence (P23975 whole entry)": "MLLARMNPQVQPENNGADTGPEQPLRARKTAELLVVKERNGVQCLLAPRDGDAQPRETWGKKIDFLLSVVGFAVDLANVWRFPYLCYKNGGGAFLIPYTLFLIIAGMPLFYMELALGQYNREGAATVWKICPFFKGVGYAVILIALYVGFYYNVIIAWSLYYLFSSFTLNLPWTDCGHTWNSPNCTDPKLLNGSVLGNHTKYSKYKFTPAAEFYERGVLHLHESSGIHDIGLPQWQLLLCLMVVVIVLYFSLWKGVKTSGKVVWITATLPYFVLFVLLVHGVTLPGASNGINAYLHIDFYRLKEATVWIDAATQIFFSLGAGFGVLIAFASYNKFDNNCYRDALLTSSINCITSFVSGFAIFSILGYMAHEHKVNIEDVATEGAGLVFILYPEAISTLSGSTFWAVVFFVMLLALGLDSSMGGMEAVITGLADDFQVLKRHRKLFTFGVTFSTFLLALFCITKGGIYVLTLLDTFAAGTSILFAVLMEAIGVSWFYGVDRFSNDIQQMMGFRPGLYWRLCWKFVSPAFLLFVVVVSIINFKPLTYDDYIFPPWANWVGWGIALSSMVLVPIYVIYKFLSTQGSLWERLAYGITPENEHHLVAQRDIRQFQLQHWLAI", "conditions": "assayed at 10 μM"}, "[11]": {"molecular_target": "panel of human cytochrome P450s, receptors, and ion channels (Homo sapiens, UniProt P21554)", "sequence (P21554 whole entry)": "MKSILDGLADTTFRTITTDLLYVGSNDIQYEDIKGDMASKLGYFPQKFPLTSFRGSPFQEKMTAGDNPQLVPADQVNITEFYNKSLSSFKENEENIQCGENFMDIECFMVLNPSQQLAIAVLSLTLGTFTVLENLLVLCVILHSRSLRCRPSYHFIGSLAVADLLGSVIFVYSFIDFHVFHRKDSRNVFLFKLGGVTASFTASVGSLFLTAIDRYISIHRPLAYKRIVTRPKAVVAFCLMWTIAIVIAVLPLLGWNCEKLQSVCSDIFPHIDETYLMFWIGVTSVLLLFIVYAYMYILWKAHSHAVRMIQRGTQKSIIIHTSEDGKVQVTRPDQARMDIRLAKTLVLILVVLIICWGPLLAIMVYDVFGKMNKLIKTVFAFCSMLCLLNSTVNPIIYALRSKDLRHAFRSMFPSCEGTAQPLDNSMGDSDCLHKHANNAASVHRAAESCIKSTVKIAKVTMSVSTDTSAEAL", "conditions": "assayed at 10 μM"}}, "data": [{"smiles": "CCC(Oc1ccc(Cl)c(Cl)c1Cl)C(=O)NCc1ccc(F)cc1", "note": "(centres unmarked) [MBX-4532]", "values": [{"measurement": "IC50", "setting": "[1]", "result": 1, "unit": "µM"}, {"measurement": "EC50", "setting": "[2]", "result": 1.7, "unit": "µM"}, {"measurement": "Adrenergic α1A", "setting": "[3]", "result": 12}, {"measurement": "Adenosine A1", "setting": "[4]", "result": 15}, {"measurement": "Adrenergic β1", "setting": "[5]", "result": 2}, {"measurement": "Serotonin (5-Hydroxytryptamine) 5-HT2B", "setting": "[6]", "result": 59}, {"measurement": "Histamine H1", "setting": "[7]", "result": 23}, {"measurement": "Adrenergic α2A", "setting": "[8]", "result": 23}, {"measurement": "Prostanoid EP4", "setting": "[9]", "result": "−6"}, {"measurement": "Transporter, Norepinephrine (NET)", "setting": "[10]", "result": 61}, {"measurement": "Cannabinoid CB1", "setting": "[11]", "result": 16}]}]}
